Results from patent US11497788B2, “Supramolecular glycosaminoglycans” (Northwestern University, priority 2015, dated 2022).

Tested on: BMP-2, BMP-4, noggin, Shh, VEGF, FGF-1, FGF-2
Assay: Surface plasmon resonance (SPR) binding to immobilized heparin binding GFs
Parameters: species or system human (Noggin murine)
Conditions: analytes 50-500 nM; GFs immobilized on alginate surface; 25° C.
Experimental: Surface Plasmon Resonance: The binding interactions between PAs (analytes) and growth factors (ligands) were analyzed via surface plasmon resonance (SPR) using a ProteON XPR36 system (Bio-Rad Laboratories). PA samples were thermally annealed as described for Cryo-TEM. PA solutions were spun down, pipetted for homogeneous mixing, and sequentially diluted to appropriate concentrations using Tween buffer (Milli-Q water, 0.05% Tween-20). Lyophilized powders of GFs were reconstituted to 5 μM without any carrier proteins according to the manufacturer's instructions. BMP-2, BMP-4, Shh, VEGF, and FGF-2 were further diluted to 200 nM in ProteOn Acetate Buffer pH 5.5, while FGF-1 was diluted to 200 nM in ProteOn Acetate Buffer pH 4.5. Noggin was diluted to 300 nM in ProteOn Acetate Buffer pH 5.5.
GFs were immobilized on a ProteOn GLC-Chip via amino coupling as described previously, with slight modifications (37). First, the alginate surface was activated with a freshly prepared mixture of 20 mM 1-Ethyl-3-[3-dimethylaminopropyl]carbodiimide hydrochloride (EDC) and 5 mM N-hydroxysulfosuccinimide (Sulfo-NHS) in Milli-Q water (vertical flow cells, 30 μL/min, 3 min). Following, GFs were immobilized on vertical flow cells 1 to 5 by perfusing a freshly prepared 200 nM (or 300 nM) solution over the activated alginate surface (30 μL/min, 5 min). Blank buffer was perfused on vertical cell 6 as a reference. The remaining esters were deactivated with 1 M ethanolamine (30 μL/min, 3 min). The association and dissociation phases were performed at 25° C. in Tween buffer. Prior to each analyte injection, the horizontal flow cells 1 to 6 were regenerated with 10 mM NaOH (100 μL/min, 30 sec) and washed once with Tween buffer (30 μL/min, 3 min). Varied analyte concentrations were injected to horizontal flow cells 1 to 5, with flow cell 6 as a reference (30 μL/min, 5 min), followed by dissociation with Tween buffer (30 μL/min, 10 min). For analysis, SPR sensorgram from the reference flow cell was subtracted from all measurement flow cells. Interaction data were evaluated using the BIAEvaluation 4.1 software. […]

Question: For “3,4,6S-GlcNAc PA (VVAAEEK) [PA 1, glycosylated peptide amphiphile: Alkyne PA click-conjugated with trisulfated monosaccharide 1]”, which “binding to heparin binding GFs (SPR)” value is on record?
Answer: Its value is “strong concentration-dependent binding”.
